Experimental data published in patent publication US10106515B2, “1-(cyclopent-2-en-1-yl)-3-(2-hydroxy-3-(arylsulfonyl)phenyl)urea derivatives as CXCR2 inhibitors” (GLAXOSMITHKLINE INTELLECTUAL PROPERTY DEVELOPMENT LIMITED, priority 2014, dated 2018).
Structures can show the parent of a compound that is named as a salt.

Target: T1, recombinant human CXCR2 (Homo sapiens, UniProt P25025)
T1 construct: TEV protease site; Gal4-VP16 transcription factor
T1 sequence (P25025 1-360): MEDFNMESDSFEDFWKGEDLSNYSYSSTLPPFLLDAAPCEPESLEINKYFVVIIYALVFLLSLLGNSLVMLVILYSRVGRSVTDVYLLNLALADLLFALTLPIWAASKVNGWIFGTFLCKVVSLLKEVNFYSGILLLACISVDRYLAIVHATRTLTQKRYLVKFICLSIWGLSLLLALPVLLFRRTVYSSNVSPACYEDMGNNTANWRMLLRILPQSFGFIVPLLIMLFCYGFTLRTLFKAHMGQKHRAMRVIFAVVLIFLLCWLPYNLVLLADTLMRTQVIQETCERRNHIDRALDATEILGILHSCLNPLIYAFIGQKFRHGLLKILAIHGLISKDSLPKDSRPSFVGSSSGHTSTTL
Assay: CXCR2 Tango assay
Assay type: cell-based
Conditions: mean pIC50 of multiple test results; stimulated with 80 nM hCXCL1; reporter gene blue/green emission ratio; read-out: pIC50 (CXCR2 Tango assay) (converted)
Description: The assay measures ligand-induced activation of the receptor CXCR2 in a stable cell line containing the recombinant human CXCR2 linked to a TEV protease site and a Gal4-VP16 transcription factor (Invitrogen). Ligand binding to the receptor results in the recruitment of arrestin proteins (tagged with protease) to the receptor and triggers the release of a tethered transcription factor. The transcription factor enters the nucleus and activates the transcription of the reporter gene. The ability of a compound to inhibit CXCR2 activation is indirectly assessed by measuring the reporter gene activity.
A vial of cryopreserved cells was removed from liquid nitrogen and rapidly thawed in a water bath at 37° C. with gentle agitation. The contents of the vial were transferred drop-wise into Thawing Medium in a sterile 15 ml conical tube and then centrifuged at 1000 rpm for 4-5 min. Then the cell pellets were resuspended in Assay Medium at a density of ˜200,000 cells/ml. All test compounds were dissolved in DMSO at a concentration of 10 mM and were prepared in 100% DMSO to provide 10 point dose response curves. A reference CXCR2 antagonist was added to wells in row 2, columns 1-5 & 7-11. Exemplified compounds 1-4, 7, 8-10, 13-22, 24-26, 28-30, 32, 33, 36, 37, 40, 42-44. 95-110, 115-118, 120, 121, 125, 126, 129-134, 137, 138, 140, 142, 147-149, 153-157, 159-162, 163-166, 168, 170, 172, 174-180 and 202 were tested using the CXCR2 antagonist sodium 3-chloro-6-(3-(2,3-dichlorophenyl)ureido)-2-sulfamoylphenolate as reference compound (Reference Compound 1) (published International patent application WO2002/079122). […] Test compounds were added to wells in row 2, columns 13-17 & 19-23 and rows 3-15, columns 1-5 & 7-11/13-17 & 19-23 (columns 6 and 18 as positive controls and un-stimulated controls respectively; columns 12 and 24 as cell-free control). Compounds in solution were added to the assay plate (Greiner 781090) using an Echo (Labcyte) concentration-response program (50 nl/well). The cell-free, un-stimulated and positive controls were loaded with 50 nl/well pure DMSO to ensure that the DMSO concentration was constant across the plate for all assays. Using Multi-drop Combi (Thermo) with standard cassette, 50 μl of Assay Medium was added to each well in the cell-free controls (columns 12 and 24); 50 μl of the cell suspension without hCXCL1 (a CXCR2 ligand) was added to each well in column 18 of the plate (˜10,000 cells per well); and 50 μl of the cell suspension with 80 nM hCXCL1 was added to the rest of wells of the plate (˜10,000 cells per well). The cells were incubated overnight at 37° C./5% CO2. 10 μl of 6× substrate mixture (LiveBLAzer™-FRET B/G substrate (CCF4-AM) Cat # K1096 from Invitrogen, Inc.) was added to each well using Multi-drop Combi (Thermo) with small-tube cassette and the plates incubated at room temperature for 2 h in the dark. The plate was finally read on EnVision using one excitation channel (409 nm) and two emission channels (460 nm and 530 nm).
The blue/green emission ratio (460 nm/530 nm) was calculated for each well, by dividing the background-subtracted Blue emission values by the background-subtracted Green emission values. The dose response curve was based on sigmoidal dose-response model. All ratio data was normalized based upon the maximum emission ratio of positive control (hCXCL1) and minimum emission ratio of negative control (DMSO) on each plate. The intrinsic activity (IA) of each compound would be the normalized percentage of its maximum response after curve fitting.
All exemplified compounds (except for Compounds 203 and 204) were tested in the CXCR2 Tango assay or a similar assay described above. The data mentioned below represents a mean pIC 50 value of multiple test results. It is understood that the data illustrated below may have reasonable variation depending on the specific conditions and procedures used by the person conducting the testing.

| Structure (SMILES) | IC50 |
| --- | --- |
| CC1=CCCC1NC(=O)Nc1ccc(Cl)c(S(=O)(=O)C(C)c2ncccn2)c1O (stereo not shown) [Compound 29, 1-(4-chloro-2-hydroxy-3-((1-(pyrimidin-2-yl)ethyl)sulfonyl)phenyl)-3-(2-methylcyclopent-2-en-1-yl)urea, trifluoroacetic acid salt] | ≤ 10 nM |
| CC(c1ncccn1)S(=O)(=O)c1c(Cl)ccc(NC(=O)NC2CCC=C2Cl)c1O (stereo not shown) [Compound 30, 1-(4-chloro-2-hydroxy-3-((1-(pyrimidin-2-yl)ethyl)sulfonyl)phenyl)-3-(2-chlorocyclopent-2-en-1-yl)urea] | ≤ 10 nM |
| CC1=CCC[C@H]1NC(=O)Nc1ccc(Cl)c(S(=O)(=O)C(C)CO)c1O (stereo partly drawn) [Compound 34, 1-(4-chloro-2-hydroxy-3-((1-hydroxypropan-2-yl)sulfonyl)phenyl)-3-((R)-2-methylcyclopent-2-en-1-yl)urea] | ≤ 10 nM |
| CC(F)(F)S(=O)(=O)c1c(Cl)ccc(NC(=O)NC2C=CCC2)c1O (stereo not shown) [Compound 36, 1-(4-chloro-3-((1,1-difluoroethyl)sulfonyl)-2-hydroxyphenyl)-3-(cyclopent-2-en-1-yl)urea] | ≤ 10 nM |
| CC(F)(F)S(=O)(=O)c1c(Cl)ccc(NC(=O)NC2CCC=C2Cl)c1O (stereo not shown) [Compound 37, 1-(4-chloro-3-((1,1-difluoroethyl)sulfonyl)-2-hydroxyphenyl)-3-(2-chlorocyclopent-2-en-1-yl)urea] | ≤ 1 nM |

Now from value to molecule:

| IC50 | Structure (SMILES) |
| --- | --- |
| ≤ 1 nM | CC1(S(=O)(=O)c2c(Cl)ccc(NC(=O)N[C@@H]3CCC=C3Cl)c2O)CC(O)C1 (stereo partly drawn) [Compound 38, (R)-1-(4-chloro-2-hydroxy-3-((3-hydroxy-1-methylcyclobutyl)sulfonyl)phenyl)-3-(2-chlorocyclopent-2-en-1-yl)urea] |
| ≤ 10 nM | CC1(S(=O)(=O)c2c(Cl)ccc(NC(=O)NC3CCC=C3Cl)c2O)CCOCC1 (stereo not shown) [Compound 44, 1-(4-chloro-2-hydroxy-3-((4-methyltetrahydro-2H-pyran-4-yl)sulfonyl)phenyl)-3-(2-chlorocyclopent-2-en-1-yl)urea] |
| ≤ 1 nM | CC1=CCC[C@H]1NC(=O)Nc1ccc(Cl)c(S(=O)(=O)[C@@H]2CCCC[C@H]2O)c1O [Compound 46, 1-(4-chloro-2-hydroxy-3-((trans-2-hydroxycyclohexyl)sulfonyl)phenyl)-3-((R)-2-methylcyclopent-2-en-1-yl)urea] |
| ≤ 1 nM | CC1=CCC[C@H]1NC(=O)Nc1ccc(Cl)c(S(=O)(=O)[C@H]2C[C@H](C(F)F)C2)c1O [Compound 48, 1-(4-chloro-3-((trans-3-(difluoromethyl)cyclobutyl)sulfonyl)-2-hydroxyphenyl)-3-((R)-2-methylcyclopent-2-en-1-yl)urea] |
| ≤ 1 nM | CC1=CCC[C@H]1NC(=O)Nc1ccc(Cl)c(S(=O)(=O)[C@H]2C[C@H](F)C2)c1O [Compound 50, 1-(4-chloro-3-((trans-3-fluorocyclobutyl)sulfonyl)-2-hydroxyphenyl)-3-((R)-2-methylcyclopent-2-en-1-yl)urea] |
| ≤ 1 nM | CC1=CCC[C@H]1NC(=O)Nc1ccc(Cl)c(S(=O)(=O)C2CCC[C@H](O)C2)c1O (stereo partly drawn) [Compound 52, 1-(4-chloro-2-hydroxy-3-((trans-3-hydroxycyclohexyl)sulfonyl)phenyl)-3-((R)-2-methylcyclopent-2-en-1-yl)urea] |
| ≤ 10 nM | CC1=CCC[C@H]1NC(=O)Nc1ccc(Cl)c(S(=O)(=O)C(C)(C)[C@@H]2CCOC2)c1O [Compound 55, 1-(4-chloro-2-hydroxy-3-((2-((R)-tetrahydrofuran-3-yl)propan-2-yl)sulfonyl)phenyl)-3-((R)-2-methylcyclopent-2-en-1-yl)urea] |
| ≤ 1 nM | CC1=CCC[C@H]1NC(=O)Nc1ccc(Cl)c(S(=O)(=O)C(C)(C)C(F)(F)F)c1O [Compound 58, (R)-1-(4-chloro-2-hydroxy-3-((1,1,1-trifluoro-2-methylpropan-2-yl)sulfonyl)phenyl)-3-(2-methylcyclopent-2-en-1-yl)urea] |
